What was measured:
Caco-2 monolayer cells = test system: Caco-2 monolayer cells; design: method as in PMID 24332858; settings: cited from earlier work
P-glycoprotein (P-gp) = target: T1, P-glycoprotein (P-gp) (Homo sapiens, UniProt P08183); experiment: Interaction with P-gp in MDCK-MDR1 and MDCK-WT cell permeability studies; type: in vitro ADME; settings: MDCK-MDR1 and MDCK-WT cells; for P-gp substrate activity: with and without a P-gp inhibitor (such as verapamil); for P-gp inhibition: with and without a P-gp substrate (such as digoxin)
T1 construct: expressed in transfected cells; host or cells: MDCK-MDR1 (Madin-Darby canine kidney cells carrying MDR1); MDCK-WT as control
T1 sequence (P08183 whole entry): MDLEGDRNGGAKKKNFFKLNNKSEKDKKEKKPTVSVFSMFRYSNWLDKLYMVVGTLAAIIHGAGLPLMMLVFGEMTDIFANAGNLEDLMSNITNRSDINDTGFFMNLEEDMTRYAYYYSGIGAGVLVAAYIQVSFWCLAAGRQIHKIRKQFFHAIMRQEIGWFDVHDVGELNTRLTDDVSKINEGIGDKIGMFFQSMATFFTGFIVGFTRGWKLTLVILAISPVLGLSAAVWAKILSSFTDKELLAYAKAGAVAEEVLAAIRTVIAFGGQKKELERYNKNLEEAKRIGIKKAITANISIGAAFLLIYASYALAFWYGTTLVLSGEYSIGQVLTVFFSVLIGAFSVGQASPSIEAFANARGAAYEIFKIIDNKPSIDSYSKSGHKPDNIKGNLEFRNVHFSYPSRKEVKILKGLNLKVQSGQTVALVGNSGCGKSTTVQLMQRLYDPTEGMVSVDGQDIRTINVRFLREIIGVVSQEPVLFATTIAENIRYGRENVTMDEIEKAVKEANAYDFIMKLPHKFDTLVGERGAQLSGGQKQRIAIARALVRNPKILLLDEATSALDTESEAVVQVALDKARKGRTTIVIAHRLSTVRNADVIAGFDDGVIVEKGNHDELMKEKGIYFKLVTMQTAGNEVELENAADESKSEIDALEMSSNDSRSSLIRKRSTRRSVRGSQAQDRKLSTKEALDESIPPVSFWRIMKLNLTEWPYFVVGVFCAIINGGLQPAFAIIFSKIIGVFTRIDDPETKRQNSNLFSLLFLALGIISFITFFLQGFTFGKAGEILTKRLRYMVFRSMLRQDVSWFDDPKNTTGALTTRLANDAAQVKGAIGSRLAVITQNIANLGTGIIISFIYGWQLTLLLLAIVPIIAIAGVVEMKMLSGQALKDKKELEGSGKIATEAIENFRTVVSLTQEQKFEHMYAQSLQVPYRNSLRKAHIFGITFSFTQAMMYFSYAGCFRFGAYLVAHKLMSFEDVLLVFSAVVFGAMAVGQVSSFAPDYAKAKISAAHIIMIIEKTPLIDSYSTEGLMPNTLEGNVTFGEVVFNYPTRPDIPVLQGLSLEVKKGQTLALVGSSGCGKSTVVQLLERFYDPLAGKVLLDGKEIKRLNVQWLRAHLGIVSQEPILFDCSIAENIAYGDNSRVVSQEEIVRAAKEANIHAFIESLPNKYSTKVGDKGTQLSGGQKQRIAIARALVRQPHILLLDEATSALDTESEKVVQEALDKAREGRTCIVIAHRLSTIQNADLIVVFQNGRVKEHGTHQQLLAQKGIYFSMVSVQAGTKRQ
From the text: In an attempt to increase the solubility of taxoids and develop more safe clinical formulations, we previously synthesized a series of novel taxol analogs by modifying the positions of C7, C10, C14 and C3′, which have improved water solubility and oral bioavailability. […] In order to further evaluate the substrate activity of novel taxol analogs with P-gp and whether they are P-gp inhibitors, T-13 and T-26 were selected based on structural characteristics (with or without 1, 14-carbonate moiety) and cytotoxicity in vitro for evaluation of the interaction with P-gp in Madin-Darby canine kidney (MDCK)-multidrug resistance-1 (MDR1) and MDCK-wild type (WT) cells (a more P-gp specific model)[13],[14] permeability studies, under two sets of conditions: one with and without a P-gp inhibitor (such as verapamil) to look at whether the test compounds were P-gp substrates or not, one with and without a P-gp substrate (such as digoxin) to look at whether the test compounds were P-gp inhibitors or not. […] Therefore, the permeability of the Caco-2 cells was enhanced in vitro.

[1] = Pharmacokinetics after intravenous and oral administration in rats (LC-MS/MS of plasma); type: in vivo, male Sprague-Dawley (S.D.) rats; settings: oral 60 mg/kg vs intravenous 5 mg/kg, F = (AUCp.o × Dosei.v)/(AUCi.v × Dosep.o) × 100%; for bioavailability: male, Sprague-Dawley, rat, plasma, read-out: F (absolute oral bioavailability)
Procedure: For the pharmacokinetic study, male S.D. rats (average weight 300 g) were fasted overnight to prevent coprophagia but allowing free access to water. The rats were randomly divided into four groups (6 animals each). The dosages of taxanes used in the pharmacokinetic study were based on the previously published reports[15]–[17]. For solution, T-13 and T-26 were dissolved in a mixture of Tween 80 and ethanol (50:50, v/v) at 50 mg/mL for intravenous and oral administration, respectively. Group I received the T-13 stock solution diluted with normal saline solution up to 1 mL at a dose of 5 mg/kg for intravenous injection. Group II received T-13 at a dose of 60 mg/kg for oral administration. Group III received the compound T-26 stock solution diluted with normal saline solution up to 1 mL at a dose of 5 mg/kg for intravenous injection. Group IV received T-26 at a dose of 60 mg/kg for oral administration.
Blood samples (~0.20 mL) were collected into heparin coated tubes at 0, 5, 10, 20, 40 min, 1, 2, 4, 6, 8, 12 and 24 h after intravenous injection and 5, 15, 30, 45 min, 1, 2, 4, 6, 8, 12 and 24 h after oral administration. Blood samples were centrifuged at 12,000 rpm for 10 min. The supernatant fractions were transferred into labeled microcentrifuge tubes and stored at −40 °C until LC-MS/MS analysis.
The concentration of T-13 and T-26 were determined in plasma by LC/MS as described above. Calibration curves were used for the conversion of the T-13/Paclitaxel chromatographic area to the concentration. Calibrator and quality control samples were prepared by adding appropriate volumes of standard T-13 or T-26 acetonitrile solution to drug-free plasma. Calibration curves were designed over the range 5–10,000 ng/mL (γ^2 > 0.999). An aliquot (100 μL) of plasma sample was mixed with 100 μL of acetonitrile containing internal standard (PTX, 500 ng/mL), followed by vortex mixing. Then the mixture was added 3 mL of ethyl acetate, followed by vortex gentle agitation for 3 min. […] The supernatant fraction was transferred to auto-sampler vial, and analyzed by HPLC. […]
The pharmacokinetic analysis of concentration-time data obtained after the administration of the compounds T-13 and T-26 were analyzed by a noncompartmental model using Xcalibur® (version 1.3) Software (Thermo Finnigan). The following pharmacokinetic parameters were calculated from the plasma data of Group I and Group III using WinNonlin5.2. Software: total area under the plasma concentration versus time curve, determined by extrapolation from 0 to ∞ after intravenous administration (AUCiv), half-life of the terminal phase (t1/2) and the mean residence time (MRT). Other parameters such as maximum plasma concentration (Cmax) and the time to reach Cmax (Tmax) were also analyzed after oral administration in rats.

[2] = design: method as in PMID 23811429; settings: paclitaxel, rats; cited from earlier work

SMILES	efflux ratio (Caco-2 monolayer cells)	permeability (Caco-2 monolayer cells)	P-gp substrate activity (P-glycoprotein (P-gp))	P-gp inhibition (P-glycoprotein (P-gp))	bioavailability [1]	F (absolute oral bioavailability) [1]	oral bioavailability [2]
CO[C@H]1C(=O)[C@]2(C)[C@@H](OC(=O)N(C)C)C[C@H]3OC[C@@]3(OC(C)=O)[C@H]2[C@H](OC(=O)c2ccccc2)[C@]2(O)C[C@H](OC(=O)[C@H](O)[C@@H](NC(=O)OC(C)(C)C)c3ccccc3)C(C)=C1C2(C)C [Compound T-13]	less than 2.0	highest permeability	poor substrates of P-gp	possessed inhibiting effects of P-gp mediated efflux	~11%	10.71%	–
CO[C@H]1C(=O)[C@]2(C)[C@@H](OC(=O)N(C)C)C[C@H]3OC[C@@]3(OC(C)=O)[C@H]2[C@H](OC(=O)c2ccccc2)[C@]2(O)C[C@H](OC(=O)[C@H](O)[C@H](CC(C)C)NC(=O)OC(C)(C)C)C(C)=C1C2(C)C [Compound T-15]	less than 2.0	highest permeability	–	–	–	–	–
CO[C@H]1C[C@H]2OC[C@@]2(OC(C)=O)[C@H]2[C@H](OC(=O)c3ccccc3)[C@]34OC(=O)O[C@H]3[C@H](OC(=O)[C@H](O)[C@@H](NC(=O)OC(C)(C)C)c3ccccc3)C(C)=C([C@@H](OC(=O)N(C)C)C(=O)[C@]12C)C4(C)C [Compound T-26]	less than 2.0	highest permeability	poor substrates of P-gp	possessed inhibiting effects of P-gp mediated efflux	~66%	65.79%	–
CC(=O)O[C@H]1C(=O)[C@@]2(C)[C@H]([C@H](OC(=O)c3ccccc3)[C@]3(O)C[C@H](OC(=O)[C@H](O)[C@@H](NC(=O)c4ccccc4)c4ccccc4)C(C)=C1C3(C)C)[C@]1(OC(C)=O)CO[C@@H]1C[C@@H]2O [paclitaxel, Paclitaxel]	–	–	–	–	–	–	5%

From PMC7035259, “T-13 and T-26, the novel taxanes with improved oral bioavailability in rats” (Scientific Reports, 2020)
